7 molecules from ChEMBL document CHEMBL1641394, “Terpenoids from the aerial parts of Parasenecio deltophylla” (J Nat Prod, 2010) can be followed below.

Each structure is given as a SMILES string.

As a reminder, the IC50 is the point on the concentration scale where inhibition reaches its midpoint.

In test [1] the test system is Radical scavenging activity. Kind of test: Antioxidant activity assessed as DPPH radical scavenging activity. The class given is functional. On the technique in general: The DPPH test is a chemical assay of radical scavenging.
Test [2] is described as follows: Antioxidant activity assessed as ABTS radical scavenging activity by decolorization assay. The class given is functional.
A further test deals with HL-60. Kind of test: Cytotoxicity against human HL60 by MTT assay. The class given is functional, cell-based. For orientation: Tetrazolium dyes change colour on reduction, which living cells bring about.
The test system of the next test is HepG2. Kind of test: Cytotoxicity against human HepG2 by MTT assay. It counts as functional, cell-based.

On to `C/C=C(/C)C(=O)OCc1c(C(C)=O)c(O)c(OC)c2c1[C@@H](C)CC=C2`, for which the IC50 in test [1] and in test [2] was greater than 200 µM each time.

As for `C/C=C(/C)C(=O)OCc1c(C(C)=O)c(O)c(OC)c2c1[C@@H](C)[C@@H](O)C=C2`, the IC50 in test [1] and in test [2] was greater than 200 µM in each case.

As to `C/C=C(/C)C(=O)OCc1c(C(C)=O)c(O)c(OC)c2c1[C@@H](C)[C@@H]1O[C@@H]1[C@H]2O`, the IC50 in test [1] and in test [2] was greater than 200 µM in each case.

For the molecule `C/C=C(/C)C(=O)OCc1c2c(c(OC)c3occ(C)c13)C(=O)[C@H]1O[C@H]1[C@@H]2C`, the IC50 with HL-60 was 49.8 µM; with HepG2 it was 27.8 µM; in test [1], greater than 200 µM; in test [2], greater than 200 µM.

Turning to `CCCCCCCCCCCCCCCC(=O)O[C@H]1CC(C)(C)C2=CC(=O)O[C@]2(C)C1`, the results for the concentration for half-maximal inhibition (IC50) (in the test on HL-60; in test [1]; in test [2]) were 47.5 µM, greater than 200 µM and greater than 200 µM, respectively.

Consider `CO[C@@]12[C@H](COC(N)=O)C3=C(C(=O)C(C)=C(N)C3=O)N1C[C@@H]1N[C@@H]12` [MITOMYCIN], for which the IC50 in the test with HL-60 came to 1.5 µM; in the test with HepG2 it was 5.4 µM.

`Cc1c(C)c2c(c(C)c1O)CCC(C)(C(=O)O)O2` (configuration not stated) [TROLOX]: the IC50 in test [1] and in test [2] was 13.2 µM in each case.
